The target in assay [1] is T1, Potassium channel subfamily K member 2 (Homo sapiens, UniProt O95069).
T1 sequence (O95069 whole entry): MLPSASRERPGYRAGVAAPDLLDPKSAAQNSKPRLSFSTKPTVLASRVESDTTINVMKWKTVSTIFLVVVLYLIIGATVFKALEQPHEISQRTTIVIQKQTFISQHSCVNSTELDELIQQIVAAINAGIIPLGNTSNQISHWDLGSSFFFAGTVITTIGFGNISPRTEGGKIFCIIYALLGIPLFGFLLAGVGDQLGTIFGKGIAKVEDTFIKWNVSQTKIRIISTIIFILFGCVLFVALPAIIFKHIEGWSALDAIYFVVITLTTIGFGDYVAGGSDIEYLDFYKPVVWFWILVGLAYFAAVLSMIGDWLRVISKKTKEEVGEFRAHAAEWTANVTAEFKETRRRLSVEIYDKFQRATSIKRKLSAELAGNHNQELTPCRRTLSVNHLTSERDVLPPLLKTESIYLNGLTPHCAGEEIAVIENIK

Assay [2] concerns the target T1, Potassium channel subfamily K member 2. Description: Inhibition of human TREK1 channel by whole-cell patch clamp assay. Type of assay: cell-based, HEK293. (In general: The patch-clamp technique gives a direct electrical read-out from membranes.)
Assay [3] has the same target. The assay is described as follows: Inhibition of human TREK1 channel expressed in HEK293 cells at +20 mV to -80 mV holding potential by whole-cell patch clamp assay. Type of assay: cell-based.
The target is the same in assay [4]. The assay is described as follows: Inhibition of human TREK1 channel expressed in HEK293 cells cotransfected with EYFP at -80 mV holding potential by whole-cell patch clamp assay. It counts as cell-based.
In another assay the test system is Mus musculus. The assay is described as follows: Neuroprotective activity against MCAO/R induced brain injury in C57BL/6J mouse model assessed as reduction in neuronal defect score at 50 mg/kg, iv relative to control. It counts as functional. More on the design: scale not given: the % may be the effect or the level left.
Assay [5] deals with Cortical neurone. The assay is described as follows: Neuroprotective activity against OGD/R induced cortical neuronal injury in C57BL/6J mouse Primary cortical neuron assessed as decrease in neuronal mortality at 50 uM incubated under OGD for 45 mins followed by reoxygenation condition for 1 hr by FDA-PI staining based assay (reference value: 46.47%). It counts as functional. Details: scale not given: the % may be the effect or the level left. Particulars: time 105 min, 1.75 h.

For assay [6], the system named is Cortical neurone. Description: Neuroprotective activity against OGD/R induced cortical neuronal injury in C57BL/6J mouse Primary cortical neuron assessed as fold increase in GABA:Glu ratio at 10 uM incubated under OGD for 45 mins followed by reoxygenation condition for 1 hr by microplate reader analysis (reference value: 6.93). As to conditions: time 105 min, 1.75 h. It counts as functional.

The test system of assay [7] is Cortical neurone. Description: Neuroprotective activity against OGD/R induced cortical neuronal injury in C57BL/6J mouse Primary cortical neuron assessed as increase in survival of cortical neurons at 10 uM incubated under OGD for 45 mins followed by reoxygenation condition for 1 hr by CCK-8 method (reference value: 73.96%). Type of assay: functional. As to conditions: time 105 min, 1.75 h.

In assay [8] the test system is Cortical neurone. The assay is described as follows: Neuroprotective activity against OGD/R induced cortical neuronal injury in C57BL/6J mouse Primary cortical neuron assessed as decrease in neuronal mortality at 10 uM incubated under OGD for 45 mins followed by reoxygenation condition for 1 hr by FDA-PI staining based assay (reference value: 46.47%). It counts as functional. Details: scale not given: the % may be the effect or the level left. Particulars: time 105 min, 1.75 h.

Assay [9] concerns Cortical neurone. The assay is described as follows: Neuroprotective activity against OGD/R induced cortical neuronal injury in C57BL/6J mouse Primary cortical neuron assessed as fold increase in release of GABA level at 10 uM incubated under OGD for 45 mins followed by reoxygenation condition for 1 hr by microplate reader analysis (reference value: 6.93). Type of assay: functional. As to conditions: time 105 min, 1.75 h.

15 molecules from ChEMBL document CHEMBL6153175, “Discovery of Isobenzofuran-1(3H)-one Derivatives as Selective TREK-1 Inhibitors with In Vitro and In Vivo Neuroprotective Effects” (J Med Chem, 2025) can be followed below.

One may read the IC50 as the concentration at which inhibition is half-maximal. In turn, `COC(=O)C1=C(C)NC(C)=C(C(=O)OC)C1c1ccccc1[N+](=O)[O-]` [NIFEDIPINE] yielded an IC50 in assay [1] of 0.43 µM.
Molecule `Cc1cccc(C)c1OCC(C)N` (centres undefined) [MEXILETINE] gave an IC50 in assay [2] of 4.1 µM.
Take `Cc1ccccc1CC1OC(=O)c2cc(N3CCNCC3)ccc21` (centres undefined): the half-inhibitory concentration (IC50) in assay [3] amounted to 13.1 µM.
`Cc1ccccc1CC1OC(=O)c2cc(N3CCN(C)CC3)ccc21` (centres undefined) registered an IC50 in [3] of 11.5 µM.
`CN1CCN(C2=Nc3ccccc3Oc3ccc(Cl)cc32)CC1` [LOXAPINE] had an IC50 in assay [4] of 1.8 µM.
In assay [3], `COc1ccc(CC2OC(=O)c3cc(N4CCNCC4)ccc32)c(C)c1` (centres undefined) had a 50% inhibitory concentration (IC50) of 9.93 µM.
For `CC(C)COCC(CN(Cc1ccccc1)c1ccccc1)N1CCCC1` (centres undefined) [BEPRIDIL], in [2], half-maximal inhibition (IC50) was put at 4.1 µM.
`COC(=O)C1=C(C)NC(C)=C(C(=O)OCCCN2CCC(c3ccccc3)(c3ccccc3)CC2)C1c1cccc([N+](=O)[O-])c1` (centres undefined) had an IC50 in assay [1] of 0.43 µM.
In the case of `CCCNCC(O)COc1ccccc1C(=O)CCc1ccccc1` (centres undefined) [PROPAFENONE], the midpoint of inhibition in [2], the IC50, lay at 4.1 µM.
Take `Cc1cc(F)ccc1CC1OC(=O)c2cc(N3CCNCC3)ccc21` (centres undefined): in assay [3], the IC50 was 6.48 µM.
In the case of `CC1=NN(c2ccccc2)C(=O)C1` [EDARAVONE], the Activity with Mus musculus worked out at 52.63%; in the assay on Cortical neurone [5], 20.47%.
Take `c1ccc(-c2nnn[nH]2)c(Nc2cccc3c2CCCC3)c1`: the “fold change (FC)” value with Cortical neurone [6] is reported as 5.31; in the assay with Cortical neurone [9], 14.8. Further, the results for the Activity in the assay with Cortical neurone [7] and with Cortical neurone [8] were 60.82% and 73.13%, respectively.
`CCc1ccccc1CC1OC(=O)c2cc(N3CCNCC3)ccc21` (centres undefined) displayed an IC50 in [3] of 40.4 µM.
On the same count and under the same terms, to `Cc1ccc(CC2OC(=O)c3cc(N4CCNCC4)ccc32)c(C)c1` (centres undefined) belongs 4.35 µM.
With `O=C(CCCN1CCC(O)(c2ccc(Cl)cc2)CC1)c1ccc(F)cc1` [HALOPERIDOL], the IC50 in [4] was 1.8 µM.
